# Laboratory results reported in patent publication US9458137B2, “Substituted indol-5-ol derivatives and their therapeutical applications” (NantBioScience, Inc., priority 2012, dated 2016).
# What was measured:
# Test in all cases: Kinase panel activity
# Format in all cases: biochemical
# Conditions in all cases: 0.1 μM, ATP Km
# Rsk1(h) = target: T1, Rsk1(h) (Homo sapiens, UniProt Q15418)
# T1 construct: purchased Millipore (KinaseProfiler service)
# Procedure: (§1) The effect of NTW-3475 on kinase activity was tested for a wide range of kinases and is shown in Table 2: Summary Sheet, Activity % ATP Concentration: Km
# MRCKβ(h) = target: T2, MRCKβ(h) (Homo sapiens, UniProt Q9Y5S2)
# T2 construct: purchased Millipore (KinaseProfiler service)
# Procedure: as §1
# F1t3(h) = F1t3(h) (Homo sapiens, UniProt P36888)
# Procedure: as §1
# LOK(h) = LOK(h) (Homo sapiens, UniProt O94804)
# Procedure: as §1
# TAO1(h) = target: T3, TAO1(h) (Homo sapiens, UniProt Q7L7X3)
# T3 construct: purchased Millipore (KinaseProfiler service)
# Procedure: as §1
# Aurora-B(h) = Aurora-B(h) (Homo sapiens, UniProt Q96GD4)
# Procedure: as §1
# Met(Y1248H)(h) = target: T4, Met(Y1248H)(h) (Homo sapiens, UniProt P08581, Y1230H)
# T4 construct: purchased Millipore (KinaseProfiler service)
# Procedure: as §1
# CaMKIδ(h) = CaMKIδ(h) (Homo sapiens, UniProt Q8IU85)
# Procedure: as §1
# CHK2(II57T)(h) = CHK2(II57T)(h) (Homo sapiens, UniProt O96017, I157T)
# Procedure: as §1
# EGFR(L861Q)(h) = target: T5, EGFR(L861Q)(h) (Homo sapiens, UniProt P00533, L861Q)
# T5 construct: purchased Millipore (KinaseProfiler service)
# Procedure: as §1
# WNK2(h) = WNK2(h) (Homo sapiens, UniProt Q9Y3S1)
# Procedure: as §1
# Lyn(h) = Lyn(h) (Homo sapiens, UniProt P07948)
# Procedure: as §1
# PTK5(h) = target: T6, PTK5(h) (Homo sapiens, UniProt P42685)
# T6 construct: purchased Millipore (KinaseProfiler service)
# Procedure: as §1
# PAR-1Bα(h) = PAR-1Bα(h) (Homo sapiens, UniProt Q7KZI7)
# Procedure: as §1
# cSRC(h) = cSRC(h) (Homo sapiens, UniProt P12931)
# Procedure: as §1
# Fms(h) = Fms(h) (Homo sapiens, UniProt P07333)
# Procedure: as §1
# Fms(Y969C)(h) = Fms(Y969C)(h) (Homo sapiens, UniProt P07333, Y969C)
# Procedure: as §1
# EphA8(h) = target: T7, EphA8(h) (Homo sapiens, UniProt P29322)
# T7 construct: purchased Millipore (KinaseProfiler service)
# Procedure: as §1
# PAK5(h) = PAK5(h) (Homo sapiens, UniProt Q9P286)
# Procedure: as §1
# SGK(h) = target: T8, SGK(h) (Homo sapiens, UniProt O00141)
# T8 construct: purchased Millipore (KinaseProfiler service)
# Procedure: as §1
# NEK2(h) = NEK2(h) (Homo sapiens, UniProt P51955)
# Procedure: as §1
# Ab1(Q252H)(h) = Ab1(Q252H)(h) (Homo sapiens, UniProt P00519, Q252H)
# Procedure: as §1
# PKBα(h) = PKBα(h) (Homo sapiens, UniProt P31749)
# Procedure: as §1
# PKCη(h) = PKCη(h) (Homo sapiens, UniProt P24723)
# Procedure: as §1
# TLK2(h) = target: T9, TLK2(h) (Homo sapiens, UniProt Q86UE8)
# T9 construct: purchased Millipore (KinaseProfiler service)
# Procedure: as §1
# CDK3/cyclinE(h) = CDK3/cyclinE(h) (Homo sapiens, UniProt Q00526)
# Procedure: as §1
# ALK(h) = ALK(h) (Homo sapiens, UniProt Q9UM73)
# Procedure: as §1
# cKit(D816V)(h) = cKit(D816V)(h) (Homo sapiens, UniProt P10721, D816V)
# Procedure: as §1
# EphA3(h) = target: T10, EphA3(h) (Homo sapiens, UniProt P29320)
# T10 construct: purchased Millipore (KinaseProfiler service)
# Procedure: as §1
# MAPKAP-K2(h) = target: T11, MAPKAP-K2(h) (Homo sapiens, UniProt P49137)
# T11 construct: purchased Millipore (KinaseProfiler service)
# Procedure: as §1
# P1k3(h) = P1k3(h) (Homo sapiens, UniProt Q9H4B4)
# Procedure: as §1
# SAPK3(h) = target: T12, SAPK3(h) (Homo sapiens, UniProt P53778)
# T12 construct: purchased Millipore (KinaseProfiler service)
# Procedure: as §1
# TrkA(h) = target: T13, TrkA(h) (Homo sapiens, UniProt P04629)
# T13 construct: purchased Millipore (KinaseProfiler service)
# Procedure: as §1
# PAK6(h) = PAK6(h) (Homo sapiens, UniProt Q9NQU5)
# Procedure: as §1
# DCAMKL2(h) = DCAMKL2(h) (Homo sapiens, UniProt Q8N568)
# Procedure: as §1
# Met(Y1248C)(h) = target: T14, Met(Y1248C)(h) (Homo sapiens, UniProt P08581, Y1230C)
# T14 construct: purchased Millipore (KinaseProfiler service)
# Procedure: as §1
# CDK7/cyclinH/MAT1(h) = CDK7/cyclinH/MAT1(h) (Homo sapiens, UniProt P50613)
# Procedure: as §1
# EphA7(h) = target: T15, EphA7(h) (Homo sapiens, UniProt Q15375)
# T15 construct: purchased Millipore (KinaseProfiler service)
# Procedure: as §1
# PKCδ(h) = PKCδ(h) (Homo sapiens, UniProt Q05655)
# Procedure: as §1
# Sequence of Aurora-B(h) (Q96GD4 whole entry): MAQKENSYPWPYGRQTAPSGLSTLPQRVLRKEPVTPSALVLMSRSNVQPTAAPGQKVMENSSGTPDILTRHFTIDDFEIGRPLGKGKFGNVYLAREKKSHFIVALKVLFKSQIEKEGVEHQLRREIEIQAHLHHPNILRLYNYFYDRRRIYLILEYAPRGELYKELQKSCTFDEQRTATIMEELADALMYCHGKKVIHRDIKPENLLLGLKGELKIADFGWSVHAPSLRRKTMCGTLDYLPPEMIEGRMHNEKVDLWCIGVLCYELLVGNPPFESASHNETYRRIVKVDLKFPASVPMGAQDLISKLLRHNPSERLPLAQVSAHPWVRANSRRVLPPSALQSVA
# T15 sequence (Q15375 28-998): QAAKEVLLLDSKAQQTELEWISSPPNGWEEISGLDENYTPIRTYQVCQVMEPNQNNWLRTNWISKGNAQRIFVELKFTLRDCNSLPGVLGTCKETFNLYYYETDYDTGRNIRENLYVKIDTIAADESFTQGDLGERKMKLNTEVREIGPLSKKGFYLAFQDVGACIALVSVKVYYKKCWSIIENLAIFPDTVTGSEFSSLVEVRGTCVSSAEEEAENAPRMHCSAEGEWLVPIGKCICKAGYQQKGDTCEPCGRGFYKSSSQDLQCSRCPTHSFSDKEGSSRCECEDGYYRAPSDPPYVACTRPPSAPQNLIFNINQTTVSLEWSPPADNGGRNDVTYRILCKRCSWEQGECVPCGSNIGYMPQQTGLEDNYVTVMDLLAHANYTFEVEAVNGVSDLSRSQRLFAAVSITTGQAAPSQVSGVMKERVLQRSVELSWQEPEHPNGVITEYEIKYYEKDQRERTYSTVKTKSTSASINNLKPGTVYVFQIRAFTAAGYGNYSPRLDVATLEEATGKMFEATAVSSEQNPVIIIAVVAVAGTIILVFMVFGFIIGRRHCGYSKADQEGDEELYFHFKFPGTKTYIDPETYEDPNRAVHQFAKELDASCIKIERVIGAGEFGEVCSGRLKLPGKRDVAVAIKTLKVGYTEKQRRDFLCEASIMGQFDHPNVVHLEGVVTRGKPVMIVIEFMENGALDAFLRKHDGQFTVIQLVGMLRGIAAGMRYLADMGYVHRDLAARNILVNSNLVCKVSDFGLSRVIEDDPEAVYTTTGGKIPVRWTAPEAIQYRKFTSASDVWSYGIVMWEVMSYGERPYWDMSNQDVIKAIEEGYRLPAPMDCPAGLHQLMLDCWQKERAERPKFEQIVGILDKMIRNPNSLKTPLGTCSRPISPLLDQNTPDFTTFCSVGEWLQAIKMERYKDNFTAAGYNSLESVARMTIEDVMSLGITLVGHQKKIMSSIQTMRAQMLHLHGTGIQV
# Sequence of PKBα(h) (P31749 whole entry): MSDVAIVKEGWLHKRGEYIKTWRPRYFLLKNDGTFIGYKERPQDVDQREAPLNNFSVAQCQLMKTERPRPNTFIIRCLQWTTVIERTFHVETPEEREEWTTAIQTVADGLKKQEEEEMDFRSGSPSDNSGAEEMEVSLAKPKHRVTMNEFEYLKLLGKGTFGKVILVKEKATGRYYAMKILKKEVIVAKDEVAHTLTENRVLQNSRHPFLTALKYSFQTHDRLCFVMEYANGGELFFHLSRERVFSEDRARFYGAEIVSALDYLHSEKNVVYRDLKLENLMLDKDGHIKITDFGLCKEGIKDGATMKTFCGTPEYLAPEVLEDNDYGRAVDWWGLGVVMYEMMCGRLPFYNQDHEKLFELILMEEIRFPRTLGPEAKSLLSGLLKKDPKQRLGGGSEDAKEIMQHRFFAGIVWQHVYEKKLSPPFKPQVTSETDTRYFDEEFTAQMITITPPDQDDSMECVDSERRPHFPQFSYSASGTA
# Sequence of F1t3(h) (P36888 27-993): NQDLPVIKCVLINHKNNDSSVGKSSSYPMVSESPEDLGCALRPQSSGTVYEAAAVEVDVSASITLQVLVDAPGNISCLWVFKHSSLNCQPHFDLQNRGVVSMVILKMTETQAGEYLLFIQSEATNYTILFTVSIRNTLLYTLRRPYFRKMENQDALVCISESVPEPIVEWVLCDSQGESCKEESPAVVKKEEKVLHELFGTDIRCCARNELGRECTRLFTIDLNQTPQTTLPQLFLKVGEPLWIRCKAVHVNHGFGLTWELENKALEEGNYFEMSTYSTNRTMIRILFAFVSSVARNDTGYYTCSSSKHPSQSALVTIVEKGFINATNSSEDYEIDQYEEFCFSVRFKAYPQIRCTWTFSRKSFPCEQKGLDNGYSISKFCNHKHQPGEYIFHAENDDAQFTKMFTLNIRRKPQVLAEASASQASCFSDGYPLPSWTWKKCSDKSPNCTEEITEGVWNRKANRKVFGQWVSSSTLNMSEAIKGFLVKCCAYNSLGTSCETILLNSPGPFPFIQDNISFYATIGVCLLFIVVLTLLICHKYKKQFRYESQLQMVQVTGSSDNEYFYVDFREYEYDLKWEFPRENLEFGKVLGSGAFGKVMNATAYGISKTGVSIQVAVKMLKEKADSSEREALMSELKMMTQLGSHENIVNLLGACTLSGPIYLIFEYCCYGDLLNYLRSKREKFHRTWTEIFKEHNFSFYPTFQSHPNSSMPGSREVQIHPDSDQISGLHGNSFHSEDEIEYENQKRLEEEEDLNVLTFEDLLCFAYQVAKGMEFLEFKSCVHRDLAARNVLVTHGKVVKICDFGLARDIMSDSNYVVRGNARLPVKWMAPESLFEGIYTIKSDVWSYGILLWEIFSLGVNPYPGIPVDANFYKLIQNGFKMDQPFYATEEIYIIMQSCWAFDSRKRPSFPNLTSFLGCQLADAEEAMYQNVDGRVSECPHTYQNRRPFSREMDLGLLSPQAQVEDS
# T11 sequence (P49137 whole entry): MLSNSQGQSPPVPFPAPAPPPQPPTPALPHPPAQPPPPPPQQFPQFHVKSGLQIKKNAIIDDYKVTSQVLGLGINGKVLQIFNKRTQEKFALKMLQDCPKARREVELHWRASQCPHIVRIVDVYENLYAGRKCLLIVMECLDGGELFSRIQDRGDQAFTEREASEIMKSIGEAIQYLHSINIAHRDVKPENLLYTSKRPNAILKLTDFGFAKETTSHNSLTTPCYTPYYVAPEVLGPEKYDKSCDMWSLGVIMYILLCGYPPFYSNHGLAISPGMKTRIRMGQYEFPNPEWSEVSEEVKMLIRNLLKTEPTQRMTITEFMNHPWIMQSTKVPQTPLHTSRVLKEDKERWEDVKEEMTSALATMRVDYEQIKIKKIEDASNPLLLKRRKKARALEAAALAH
# T7 sequence (P29322 28-1005): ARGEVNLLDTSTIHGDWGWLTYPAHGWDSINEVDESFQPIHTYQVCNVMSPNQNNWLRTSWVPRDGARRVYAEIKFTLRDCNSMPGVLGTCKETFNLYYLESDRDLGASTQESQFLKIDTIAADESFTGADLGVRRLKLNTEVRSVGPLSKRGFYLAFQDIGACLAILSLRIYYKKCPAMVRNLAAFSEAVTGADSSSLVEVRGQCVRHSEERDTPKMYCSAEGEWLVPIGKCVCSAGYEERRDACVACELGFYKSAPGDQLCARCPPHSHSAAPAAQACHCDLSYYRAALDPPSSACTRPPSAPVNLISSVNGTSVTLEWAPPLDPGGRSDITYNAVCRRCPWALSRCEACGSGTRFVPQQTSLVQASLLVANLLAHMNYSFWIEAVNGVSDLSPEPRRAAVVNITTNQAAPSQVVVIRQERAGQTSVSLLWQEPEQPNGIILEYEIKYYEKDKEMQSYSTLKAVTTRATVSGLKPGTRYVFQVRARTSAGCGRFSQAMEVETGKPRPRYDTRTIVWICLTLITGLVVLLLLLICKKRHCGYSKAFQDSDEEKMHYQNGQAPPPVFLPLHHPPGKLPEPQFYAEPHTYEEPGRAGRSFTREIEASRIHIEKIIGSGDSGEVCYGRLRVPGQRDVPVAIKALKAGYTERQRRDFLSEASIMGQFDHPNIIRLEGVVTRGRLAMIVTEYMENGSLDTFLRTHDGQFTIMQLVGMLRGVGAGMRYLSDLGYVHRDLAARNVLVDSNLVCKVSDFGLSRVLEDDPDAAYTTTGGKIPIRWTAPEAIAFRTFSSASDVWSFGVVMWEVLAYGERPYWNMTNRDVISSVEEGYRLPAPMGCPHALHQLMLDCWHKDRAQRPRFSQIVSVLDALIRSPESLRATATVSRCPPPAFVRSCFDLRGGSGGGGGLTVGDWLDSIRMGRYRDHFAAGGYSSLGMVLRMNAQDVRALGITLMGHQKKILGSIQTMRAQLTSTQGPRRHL
# T12 sequence (P53778 whole entry): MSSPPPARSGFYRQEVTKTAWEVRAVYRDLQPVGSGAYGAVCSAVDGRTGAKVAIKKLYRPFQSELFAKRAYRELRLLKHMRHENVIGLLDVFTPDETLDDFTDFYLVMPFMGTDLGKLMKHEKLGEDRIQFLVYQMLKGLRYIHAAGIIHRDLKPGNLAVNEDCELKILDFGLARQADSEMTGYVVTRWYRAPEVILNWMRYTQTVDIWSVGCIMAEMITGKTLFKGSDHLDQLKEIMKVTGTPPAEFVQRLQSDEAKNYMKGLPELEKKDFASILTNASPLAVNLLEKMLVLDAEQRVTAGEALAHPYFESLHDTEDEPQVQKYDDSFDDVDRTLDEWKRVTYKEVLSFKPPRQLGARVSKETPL
# Sequence of NEK2(h) (P51955 whole entry): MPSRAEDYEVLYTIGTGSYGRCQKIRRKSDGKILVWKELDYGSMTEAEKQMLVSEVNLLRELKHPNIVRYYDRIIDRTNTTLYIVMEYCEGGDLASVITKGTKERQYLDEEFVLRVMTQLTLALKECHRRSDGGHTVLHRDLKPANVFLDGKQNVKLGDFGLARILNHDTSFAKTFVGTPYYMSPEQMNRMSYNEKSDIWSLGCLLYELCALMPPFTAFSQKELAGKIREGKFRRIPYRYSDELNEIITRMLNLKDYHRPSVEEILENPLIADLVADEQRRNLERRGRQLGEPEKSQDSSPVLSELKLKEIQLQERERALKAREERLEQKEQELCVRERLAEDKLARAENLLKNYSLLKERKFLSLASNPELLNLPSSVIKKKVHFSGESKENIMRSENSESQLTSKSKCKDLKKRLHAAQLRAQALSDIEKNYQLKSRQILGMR
structure (smiles),measurement,setting,value
Cc1cc2c(F)c(Oc3nc(Nc4cc(C5CC5)[nH]n4)cc(N4CCN(C)CC4)n3)cc(F)c2[nH]1 [NTW-3475],Activity %,Rsk1(h),84%
same,Activity %,MRCKβ(h),108%
same,Activity %,F1t3(h),1%
same,Activity %,LOK(h),20%
same,Activity %,TAO1(h),65%
same,Activity %,Aurora-B(h),1%
same,Activity %,Met(Y1248H)(h),16%
same,Activity %,CaMKIδ(h),87%
same,Activity %,CHK2(II57T)(h),112%
same,Activity %,EGFR(L861Q)(h),52%
same,Activity %,WNK2(h),99%
same,Activity %,Lyn(h),5%
same,Activity %,PTK5(h),17%
same,Activity %,PAR-1Bα(h),15%
same,Activity %,cSRC(h),2%
same,Activity %,Fms(h),8%
same,Activity %,Fms(Y969C)(h),4%
same,Activity %,EphA8(h),16%
same,Activity %,PAK5(h),29%
same,Activity %,SGK(h),107%
same,Activity %,NEK2(h),101%
same,Activity %,Ab1(Q252H)(h),−2%
same,Activity %,PKBα(h),109%
same,Activity %,PKCη(h),101%
same,Activity %,TLK2(h),5%
same,Activity %,CDK3/cyclinE(h),59%
same,Activity %,ALK(h),17%
same,Activity %,cKit(D816V)(h),63%
same,Activity %,EphA3(h),22%
same,Activity %,MAPKAP-K2(h),105%
same,Activity %,P1k3(h),95%
same,Activity %,SAPK3(h),115%
same,Activity %,TrkA(h),2%
same,Activity %,PAK6(h),85%
same,Activity %,DCAMKL2(h),87%
same,Activity %,Met(Y1248C)(h),20%
same,Activity %,CDK7/cyclinH/MAT1(h),44%
same,Activity %,EphA7(h),54%
same,Activity %,PKCδ(h),90%
